Columns and labels:
Assay type in all cases: in vivo
[1] = system: velvetleaf (Abutilon theophrasti); experiment: Test B pre-/postemergence plant response; conditions: Preemergence
Procedure, shortened: (§1)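 Seeds were sown and sprayed preemergence, while plants at 2 to 18 cm (1- to 4-leaf stage) got postemergence sprays. Compounds were formulated in a non-phytotoxic solvent mixture with surfactant. After 13 to 15 days in a greenhouse, injury was rated visually against untreated controls, 0 (no effect) to 100 (complete control).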

[2] = system: large crabgrass (Digitaria sanguinalis); experiment: Test B pre-/postemergence plant response; conditions: Preemergence
Procedure, shortened: as §1

[3] = system: wild oat (Avena fatua); experiment: Test B pre-/postemergence plant response; conditions: Preemergence
Procedure, shortened: as §1

[4] = system: morningglory (Ipomoea coccinea); experiment: Test B pre-/postemergence plant response; conditions: Preemergence
Procedure, shortened: as §1

[5] = system: downy bromegrass (Bromus tectorum); experiment: Test B pre-/postemergence plant response; conditions: Preemergence
Procedure, shortened: as §1

[6] = system: corn (Zea mays); experiment: Test B pre-/postemergence plant response; conditions: Preemergence
Procedure, shortened: as §1

[7] = system: common (oilseed) sunflower (Helianthus annuus); experiment: Test B pre-/postemergence plant response; conditions: Preemergence
Procedure, shortened: as §1

[8] = system: green foxtail (Setaria viridis); experiment: Test B pre-/postemergence plant response; conditions: Preemergence
Procedure, shortened: as §1

[9] = system: wheat (Triticum aestivum); experiment: Test B pre-/postemergence plant response; conditions: Preemergence
Procedure, shortened: as §1

[10] = system: surinam grass (Brachiaria decumbens); experiment: Test B pre-/postemergence plant response; conditions: Preemergence
Procedure, shortened: as §1

[11] = system: ducksalad (Heteranthera limosa); experiment: Test B flooded paddy test plant response
Procedure, shortened: (§2)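 Step one: raise plants to 2 leaves. Step two: flood pots 3 cm over the soil and apply compound into the water, keeping this depth. Step three: after 13–15 greenhouse days, score visually versus controls, 0–100, where 100 means complete control.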

[12] = system: umbrella sedge (Cyperus difformis); experiment: Test B flooded paddy test plant response
Procedure, shortened: as §2

[13] = system: barnyardgrass (Echinochloa crus-galli); experiment: Test B flooded paddy test plant response
Procedure, shortened: as §2

[14] = system: rice (Oryza sativa); experiment: Test B flooded paddy test plant response
Procedure, shortened: as §2

[15] = 16 g ai/ha, scale 0 to 100 (0 no effect, 100 complete control)
[16] = 31 g ai/ha, 0 to 100 scale, 0 no effect, 100 complete control
[17] = Flood (flooded paddy test), 62 g ai/ha, scale 0 to 100, 0 no effect, 100 complete control
[18] = Flood (flooded paddy test), 125 g ai/ha, scale 0 to 100, 0 no effect, 100 complete control
[19] = Flood (flooded paddy test), 250 g ai/ha, scale 0 to 100, 0 no effect, 100 complete control
[20] = Flood, 31 g ai/ha, scale 0 to 100

Cn1ncc(O)c(-c2nn(-c3ccc(Cl)cc3)cc2Br)c1=O [Compound 31]
65: Plant response rating, Bromegrass, Downy [5, 16] | Foxtail, Green plant response rating ([8]; 8 g ai/ha, scale 0 to 100)
60: Plant response rating, Corn [6, 16]
85: Plant response rating, Bromegrass, Downy ([5]; 62 g ai/ha, scale 0 to 100)
90: Plant response rating, Crabgrass, Large [2, 15] | Plant response rating, Oat, Wild ([3]; 62 g ai/ha, scale 0 to 100) | Plant response rating, Corn ([6]; 62 g ai/ha, scale 0 to 100)
98: Plant response rating, Foxtail, Green [8, 15]
0: Plant response rating, Velvetleaf [1, 15] | Plant response rating, Velvetleaf [1, 16] | Plant response rating, Velvetleaf ([1]; 62 g ai/ha, scale 0 to 100) | Velvetleaf plant response rating ([1]; 8 g ai/ha, scale 0 to 100) | Plant response rating, Morningglory [4, 15] | Plant response rating, Morningglory [4, 16] | Plant response rating, Morningglory ([4]; 62 g ai/ha, scale 0 to 100) | Morningglory plant response rating ([4]; 8 g ai/ha, scale 0 to 100) | Plant response rating, Bromegrass, Downy [5, 15] | Bromegrass, Downy plant response rating ([5]; 8 g ai/ha, scale 0 to 100) | Plant response rating, Corn [6, 15] | Plant response rating, Sunflower [7, 15] | Plant response rating, Sunflower [7, 16] | Plant response rating, Sunflower ([7]; 62 g ai/ha, scale 0 to 100) | Sunflower plant response rating ([7]; 8 g ai/ha, scale 0 to 100) | Plant response rating, Wheat [9, 15] | Plant response rating, Wheat [9, 16] | Wheat plant response rating ([9]; 8 g ai/ha, scale 0 to 100) | Plant response rating, Ducksalad [11, 17] | Plant response rating, Ducksalad [11, 18] | Plant response rating, Ducksalad [11, 19] | Plant response rating, Ducksalad [11, 20] | Plant response rating, Sedge, Umbrella [12, 17] | Plant response rating, Sedge, Umbrella [12, 18] | Plant response rating, Sedge, Umbrella [12, 19] | Plant response rating, Sedge, Umbrella [12, 20] | Plant response rating, Barnyardgrass [13, 17] | Plant response rating, Barnyardgrass [13, 18] | Plant response rating, Barnyardgrass [13, 19] | Plant response rating, Barnyardgrass [13, 20] | Plant response rating, Rice [14, 17] | Plant response rating, Rice [14, 18] | Plant response rating, Rice [14, 19] | Plant response rating, Rice [14, 20]
70: Plant response rating, Oat, Wild [3, 16]
45: Plant response rating, Oat, Wild [3, 15]
80: Crabgrass, Large plant response rating ([2]; 8 g ai/ha, scale 0 to 100) | Plant response rating, Wheat ([9]; 62 g ai/ha, scale 0 to 100) | Plant response rating, Surinam Grass [10, 15] | Surinam Grass plant response rating ([10]; 8 g ai/ha, scale 0 to 100)
100: Plant response rating, Crabgrass, Large [2, 16] | Plant response rating, Crabgrass, Large ([2]; 62 g ai/ha, scale 0 to 100) | Plant response rating, Foxtail, Green [8, 16] | Plant response rating, Foxtail, Green ([8]; 62 g ai/ha, scale 0 to 100) | Plant response rating, Surinam Grass [10, 16] | Plant response rating, Surinam Grass ([10]; 62 g ai/ha, scale 0 to 100)
